PubChem BioAssay (NCI)
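Five concentrations, 48 hours, 96-well plates. GI50 is the concentration that inhibits growth by half. Definition used: TGI = concentration required for complete inhibition of growth.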

What was measured:
Experiment in all cases: NCI anticancer screen, dose series, 48 h
SK-MEL-2 melanoma = tested on: SK-MEL-2 melanoma
OVCAR-8 ovarian = tested on: OVCAR-8 ovarian
UACC-62 melanoma = tested on: UACC-62 melanoma
BT-549 breast = tested on: BT-549 breast
TK-10 renal = tested on: TK-10 renal
LOX IMVI melanoma = tested on: LOX IMVI melanoma
MOLT-4 leukemia = tested on: MOLT-4 leukemia
SN12C renal = tested on: SN12C renal
NCI-H226 lung = tested on: NCI-H226 lung
HOP-62 NSCLC = tested on: HOP-62 NSCLC
OVCAR-3 ovarian = tested on: OVCAR-3 ovarian
MDA-MB-435 = tested on: MDA-MB-435
COLO 205 colon = tested on: COLO 205 colon
ACHN renal = tested on: ACHN renal
MDA-MB-231 breast = tested on: MDA-MB-231 breast
SR leukemia = tested on: SR leukemia
RPMI-8226 leukemia = tested on: RPMI-8226 leukemia
NCI/ADR-RES ovarian = tested on: NCI/ADR-RES ovarian
A549 NSCLC = tested on: A549 NSCLC
UACC-257 melanoma = tested on: UACC-257 melanoma
SF-539 CNS = tested on: SF-539 CNS
DU-145 prostate = tested on: DU-145 prostate
SF-268 CNS = tested on: SF-268 CNS
U251 CNS = tested on: U251 CNS
CCRF-CEM leukemia = tested on: CCRF-CEM leukemia
SW-620 colon = tested on: SW-620 colon
NCI-H522 lung = tested on: NCI-H522 lung
RXF 393 renal = tested on: RXF 393 renal
HCC-2998 colon = tested on: HCC-2998 colon
SF-295 CNS = tested on: SF-295 CNS
MALME-3M melanoma = tested on: MALME-3M melanoma
786-0 renal = tested on: 786-0 renal
SK-MEL-28 melanoma = tested on: SK-MEL-28 melanoma
MCF7 breast = tested on: MCF7 breast
NCI-H460 lung = tested on: NCI-H460 lung
HT29 colon = tested on: HT29 colon
PC-3 prostate = tested on: PC-3 prostate
IGROV1 ovarian = tested on: IGROV1 ovarian
NCI-H23 lung = tested on: NCI-H23 lung
T-47D breast = tested on: T-47D breast
SK-OV-3 ovarian = tested on: SK-OV-3 ovarian
K-562 leukemia = tested on: K-562 leukemia
EKVX NSCLC = tested on: EKVX NSCLC
SNB-75 CNS = tested on: SNB-75 CNS
HOP-92 NSCLC = tested on: HOP-92 NSCLC
HS 578T breast = tested on: HS 578T breast
UO-31 renal = tested on: UO-31 renal
CAKI-1 renal = tested on: CAKI-1 renal
M14 melanoma = tested on: M14 melanoma
OVCAR-5 ovarian = tested on: OVCAR-5 ovarian
HCT-15 colon = tested on: HCT-15 colon
A498 renal = tested on: A498 renal
SNB-19 CNS = tested on: SNB-19 CNS
HL-60(TB) leukemia = tested on: HL-60(TB) leukemia
SK-MEL-5 melanoma = tested on: SK-MEL-5 melanoma
KM12 colon = tested on: KM12 colon
OVCAR-4 ovarian = tested on: OVCAR-4 ovarian
HCT-116 colon = tested on: HCT-116 colon

Compound `C=C(C)[C@@H]1CC[C@]2(C(=O)OC)CC[C@]3(C)[C@H](CC[C@@H]4[C@@]5(C)CC/C(=N\OCCC(=NCCC#N)NOCCC#N)C(C)(C)[C@@H]5CC[C@]43C)[C@@H]12` has a GI50 (SK-MEL-2 melanoma) of 13.8 µM, a TGI (SK-MEL-2 melanoma) of over 50 µM and a GI50 (OVCAR-8 ovarian) of 9.66 µM. It also gave a TGI (OVCAR-8 ovarian) of over 50 µM, a GI50 (UACC-62 melanoma) of 2.32 µM and a TGI (UACC-62 melanoma) of 12.6 µM. The GI50 (BT-549 breast) was 11.3 µM, the TGI (BT-549 breast) was over 50 µM and the GI50 (TK-10 renal) was 13.8 µM. It also gave a TGI (TK-10 renal) of over 50 µM, a GI50 (LOX IMVI melanoma) of 4.32 µM and a TGI (LOX IMVI melanoma) of 10.4 µM. For the same compound, the GI50 (MOLT-4 leukemia) was 2.52 µM, the TGI (MOLT-4 leukemia) was 13 µM and the GI50 (SN12C renal) was 7.28 µM. The TGI (SN12C renal) was 14.7 µM, the GI50 (NCI-H226 lung) was 5.43 µM and the TGI (NCI-H226 lung) was 15.5 µM. It also gave a GI50 (HOP-62 NSCLC) of 12.5 µM, a TGI (HOP-62 NSCLC) of over 50 µM and a GI50 (OVCAR-3 ovarian) of 5.17 µM. The TGI (OVCAR-3 ovarian) was 15.8 µM, the GI50 (MDA-MB-435) was 9.7 µM and the TGI (MDA-MB-435) was over 50 µM. The GI50 (COLO 205 colon) was 9.02 µM, the TGI (COLO 205 colon) was over 50 µM and the GI50 (ACHN renal) was 10.5 µM. For the same compound, the TGI (ACHN renal) was over 50 µM, the GI50 (MDA-MB-231 breast) was 10.3 µM and the TGI (MDA-MB-231 breast) was over 50 µM. The GI50 (SR leukemia) was 2.87 µM, the TGI (SR leukemia) was 16.5 µM and the GI50 (RPMI-8226 leukemia) was 4.91 µM. The TGI (RPMI-8226 leukemia) was 42.7 µM, the GI50 (NCI/ADR-RES ovarian) was 13.5 µM and the TGI (NCI/ADR-RES ovarian) was over 50 µM. For the same compound, the GI50 (A549 NSCLC) was 5.27 µM, the TGI (A549 NSCLC) was over 50 µM and the GI50 (UACC-257 melanoma) was 5.35 µM. The TGI (UACC-257 melanoma) was over 50 µM, the GI50 (SF-539 CNS) was 11 µM and the TGI (SF-539 CNS) was over 50 µM. For the same compound, the GI50 (DU-145 prostate) was 13.4 µM, the TGI (DU-145 prostate) was over 50 µM and the GI50 (SF-268 CNS) was 11.4 µM. It also gave a TGI (SF-268 CNS) of over 50 µM, a GI50 (U251 CNS) of 4.3 µM and a TGI (U251 CNS) of 12.4 µM. It also gave a GI50 (CCRF-CEM leukemia) of 11.7 µM, a TGI (CCRF-CEM leukemia) of over 50 µM and a GI50 (SW-620 colon) of 4.45 µM. It also gave a TGI (SW-620 colon) of over 50 µM, a GI50 (NCI-H522 lung) of 8.34 µM and a TGI (NCI-H522 lung) of over 50 µM. The GI50 (RXF 393 renal) was 5.64 µM, the TGI (RXF 393 renal) was 16.6 µM and the GI50 (HCC-2998 colon) was 13.8 µM. For the same compound, the TGI (HCC-2998 colon) was over 50 µM, the GI50 (SF-295 CNS) was 21.4 µM and the TGI (SF-295 CNS) was over 50 µM. The GI50 (MALME-3M melanoma) was 11.8 µM, the TGI (MALME-3M melanoma) was over 50 µM and the GI50 (786-0 renal) was 6.42 µM. It also gave a TGI (786-0 renal) of 16.4 µM, a GI50 (SK-MEL-28 melanoma) of 17.1 µM and a TGI (SK-MEL-28 melanoma) of over 50 µM. It also gave a GI50 (MCF7 breast) of 3.68 µM, a TGI (MCF7 breast) of over 50 µM and a GI50 (NCI-H460 lung) of 11.1 µM. For the same compound, the TGI (NCI-H460 lung) was over 50 µM, the GI50 (HT29 colon) was 6.7 µM and the TGI (HT29 colon) was 26.2 µM. The GI50 (PC-3 prostate) was 2.26 µM, the TGI (PC-3 prostate) was over 50 µM and the GI50 (IGROV1 ovarian) was 14.9 µM. For the same compound, the TGI (IGROV1 ovarian) was over 50 µM, the GI50 (NCI-H23 lung) was 7.59 µM and the TGI (NCI-H23 lung) was over 50 µM. The GI50 (T-47D breast) was 3.47 µM, the TGI (T-47D breast) was over 50 µM and the GI50 (SK-OV-3 ovarian) was 10.8 µM. The TGI (SK-OV-3 ovarian) was over 50 µM, the GI50 (K-562 leukemia) was 2.23 µM and the TGI (K-562 leukemia) was over 50 µM. The GI50 (EKVX NSCLC) was 4.77 µM, the TGI (EKVX NSCLC) was over 50 µM and the GI50 (SNB-75 CNS) was 31.2 µM. The TGI (SNB-75 CNS) was over 50 µM, the GI50 (HOP-92 NSCLC) was 6.9 µM and the TGI (HOP-92 NSCLC) was 35 µM. For the same compound, the GI50 (HS 578T breast) was 30.2 µM, the TGI (HS 578T breast) was over 50 µM and the GI50 (UO-31 renal) was 15.6 µM. It also gave a TGI (UO-31 renal) of over 50 µM, a GI50 (CAKI-1 renal) of 10.2 µM and a TGI (CAKI-1 renal) of over 50 µM. For the same compound, the GI50 (M14 melanoma) was 11.9 µM, the TGI (M14 melanoma) was over 50 µM and the GI50 (OVCAR-5 ovarian) was 16.7 µM. The TGI (OVCAR-5 ovarian) was over 50 µM, the GI50 (HCT-15 colon) was 5.77 µM and the TGI (HCT-15 colon) was over 50 µM. For the same compound, the GI50 (A498 renal) was 21.7 µM, the TGI (A498 renal) was over 50 µM and the GI50 (SNB-19 CNS) was 12.6 µM. The TGI (SNB-19 CNS) was over 50 µM, the GI50 (HL-60(TB) leukemia) was 5.18 µM and the TGI (HL-60(TB) leukemia) was 24.9 µM. It also gave a GI50 (SK-MEL-5 melanoma) of 3.02 µM, a TGI (SK-MEL-5 melanoma) of 10 µM and a GI50 (KM12 colon) of 9.35 µM. The TGI (KM12 colon) was over 50 µM, the GI50 (OVCAR-4 ovarian) was 12.3 µM and the TGI (OVCAR-4 ovarian) was over 50 µM. It also gave a GI50 (HCT-116 colon) of 2.89 µM and a TGI (HCT-116 colon) of over 50 µM.
